Where a name gives a salt, the structure may show the parent alone.
System: biocontrol strain ST15
Format: cell-based, Bacillus altitudinis
Further: key: +: not sensitive; −: sensitive.

| Compound | chemical sensitivity of strain ST15 |
| --- | --- |
| CCn1cc(C(=O)O)c(=O)c2ccc(C)nc21 [Nalidixic acid] | + |
| CC(=O)O[C@H]1C[C@@]2(C)[C@@H](C[C@@H](O)[C@H]3[C@@]4(C)CC[C@@H](O)[C@@H](C)[C@@H]4CC[C@@]32C)/C1=C(\CCC=C(C)C)C(=O)O [Fusidic acid] | − |
| CO[C@H]1/C=C/O[C@@]2(C)Oc3c(C)c([O-])c4c(O)c(cc(O)c4c3C2=O)NC(=O)/C(C)=C\C=C\[C@H](C)[C@H](O)[C@@H](C)[C@@H](O)[C@@H](C)[C@H](OC(C)=O)[C@@H]1C.[Na+] [Rifamycin SV] | − |
| CN[C@H](CC(C)C)C(=O)N[C@H]1C(=O)N[C@@H](CC(N)=O)C(=O)N[C@H]2C(=O)N[C@H]3C(=O)N[C@H](C(=O)N[C@H](C(=O)O)c4cc(O)cc(O)c4-c4cc3ccc4O)[C@H](O)c3ccc(c(Cl)c3)Oc3cc2cc(c3O[C@@H]2O[C@H](CO)[C@@H](O)[C@H](O)[C@H]2O[C@H]2C[C@](C)(N)[C@H](O)[C@H](C)O2)Oc2ccc(cc2Cl)[C@H]1O [Vancomycin] | − |
| CCC[C@@H]1C[C@@H](C(=O)N[C@@H]([C@H]2O[C@H](SC)[C@H](O)[C@@H](O)[C@H]2O)[C@@H](C)O)N(C)C1 [Lincomycin] | + |
| [Cl-].[Li+] [Lithium chloride] | + |
| CCCC(=O)[O-].[Na+] [Sodium butyrate] | + |
| O=[Te]([O-])[O-].[K+].[K+] [Dipotassium trioxotellurate] | + |
| CCCCCCCCCCCCCCOS(=O)(=O)[O-].[Na+] [Sodium tetradecyl sulfate] | − |
| N[C@H](CO)C(=O)O [D-serine] | − |
| COc1cc(-c2ccc(-n3nc(-c4ccccc4)n[n+]3-c3ccccc3)c(OC)c2)ccc1-n1nc(-c2ccccc2)n[n+]1-c1ccccc1.[Cl-].[Cl-] [Tetrazolium blue] | − |
| N=C(N)N [Guanidine hydrochloride] | + |
| [Cl-].[Na+] [1% NaCl, NaCl] | + |
| CC(O)C(=O)[O-].[Na+] (centres unmarked) [1% sodium lactate, sodium lactate] | + |
| c1ccc(-c2nn(-c3ccccc3)[n+](-c3cccc4ccccc34)n2)cc1 [Tetrazolium violet] | − |
| CO[C@H]1C[C@H](O[C@H]2[C@H](C)[C@@H](O[C@@H]3O[C@H](C)C[C@H](N(C)C)[C@H]3OC(C)=O)[C@@H](C)C[C@@]3(CO3)C(=O)[C@H](C)[C@@H](OC(C)=O)[C@@H](C)[C@@H](C)OC(=O)[C@@H]2C)O[C@@H](C)[C@@H]1OC(C)=O [Troleandomycin] | − |
| C[C@H]1[C@H](NC(=O)/C(=N\OC(C)(C)C(=O)O)c2csc(N)n2)C(=O)N1S(=O)(=O)O [Aztreonam] | + |
